# Measurements published in patent publication US20220047658A1, “TCM ADDITION AND SUBTRACTION PRESCRIPTION USED PREVENTION/TREATMENT OF METABOLIC SYNDROME AND COMPLICATIONS” (priority 2019, published 2022).
# Key:
# Type in all cases: in vivo
# db/db mice [1] = test: Measurement of glycosylated hemoglobin (HbAlc) concentration; details: D29, once per day intragastric, RX-6 6 mg/kg, RX-12 12 mg/kg, MET 350 mg/kg, NOR 8.85%, FIG. 2
# Description: Glycosylated hemoglobin (GHb) is a product hemoglobin in red blood cells, conjugated with saccharides in serum. GHb is formed via slow, persistent, and irreversible glycation; its content is dependent on blood glucose concentration, and exposure duration of blood glucose to hemoglobin, and independent of blood collection time, patients' fasting or non-fasting status, or insulin use or non-use, etc. Therefore, GHb may efficiently reflect blood glucose control in patients with diabetes mellitus in the past 1-2 month.
# Test method: after animal are fasted, 20 μL of whole blood is collected and placed into an EP tube containing HbAlc diluent; the content of HbAlc is measured by a full-automatic analyzer. The specific method refers to the Instructions of the Kit.
# To investigate TCM complex for prevention and treatment of type II diabetes mellitus in animal model, grade SPF BKS.Cg-Dock7m+/+Leprdb/J mice (referred to as db/db mice for short) were used to conduct a hypoglycemic experiment validation. The mice were allowed with free access to feed and water. […]
# The concentration was measured on D29 after oral administration of the drug. The animals were fasted for 4-6 h, and then anesthetized by inhalation of isoflurane; […] of whole blood was collected from orbital venous plexus and placed into a EP tube containing HbAlc diluent; the content of HbAlc was measured by a full-automatic analyzer. […]
# db/db mice [2] = test: Quantitative test for UTP 24-h urine protein (diabetic nephropathy test); details: D29, RX-6 6 mg/kg, RX-12 12 mg/kg, MET 350 mg/kg, NOR 39.30 mg/DL, FIG. 3
# Description: (§1) Overnight urine is collected and placed on crushed ice to test urine total protein, urine albumin, urine microalbumin, and urine creatinine.
# (§2) To investigate TCM complex for prevention and treatment of type II diabetes mellitus in animal model, grade SPF BKS.Cg-Dock7m+/+Leprdb/J mice (referred to as db/db mice for short) were used to conduct a hypoglycemic experiment validation. The mice were allowed with free access to feed and water. The mice were assigned into 4 groups (4 mice per group), and were administered intragastrically with the complex, once per day. […] The animals of each group were orally administered with the sample to Week 4. Urine and blood were collected 4 week later.
# (§3) The drugs in the drug groups included Poria, Semen Coicis, Rhizoma Dioscoreae, Semen Euryales, Semen Nelumbinis, Endothelium Corneum Gigeriae Galli, and Paeonia Lactiflora; the preparation method is that, Poria, Semen Coicis, Rhizoma Dioscoreae, Semen Euryales, Semen Nelumbinis, Endothelium Corneum Gigeriae Galli, and Paeonia Lactiflora were prepared and then compounded in a weight ratio of 1:1:1:1:1:1:2 to produce a powder. […]
# Quantitative test for 24 h urine protein (UTP24) is a urine test method in which 24-h discharged total urine is collected to conduct a […] test.
# db/db mice [3] = test: Test for urine creatinine (diabetic nephropathy test); details: 29-d raise, MET 350 mg/kg, FIG. 6
# Description: as §1, §2
# as §3, with “powder. The obtained powder was diluted in a certain proportion to obtain RX−6 of the low dose (6 mg/kg) drug group, and RX-12 of the high dose (12 mg/kg) drug group.” for “powder.”
# db/db mice [4] = test: Test for mAlb urine microalbumin (diabetic nephropathy test); details: D29, RX-6 6 mg/kg, RX-12 12 mg/kg, MET 350 mg/kg, NOR 20.10 mg/L, FIG. 5
# Description: as §1, §2
# as §3, with “powder. The obtained powder was diluted in a certain proportion to obtain RX−6 of the low dose (6 mg/kg) drug group, and RX-12 of the high dose (12 mg/kg) drug group.” for “powder.”
# db/db mice [5] = test: Non-fasting blood glucose level; details: MET 350 mg/kg, D4 after oral administration
# Method: The measured value of 2-H postprandial blood glucose test is the most valuable and may reflect reserve function of pancreatic islet B cells. Blood glucose is measured after animals eat feed.
# as §2, with “later. […]” for “later.”
# The animals were fed randomly and then blood was collected at tail end to measure non-fasting blood glucose level. Fasting blood glucose was measured for […], i.e.: prior to grouping, and 24 h, D4, D7, D15, D21, and D27 after administration of the drug.
# db/db mice [6] = test: Measurement of fasting blood glucose level; details: MET 350 mg/kg, 2 d after oral administration, data not shown
# Method: Fasting blood glucose means blood glucose level under the basal condition, reflecting the basal function of pancreatic islet B cells, and is an important criterion for diagnosis of diabetes mellitus. Oral glucose tolerance test means determination of fasting blood glucose after animals are fasted, and then animals are administered with the drug and administered intragastrically with glucose solution at the corresponding timepoints, and blood glucose is measured prior to intragastric administration of glucose, and 30 min, 60 min and 120 min after intragastric administration of glucose.
# as §2, with “later. […]” for “later.”
# After animals were fasted for 4-6 h, blood was collected at tail end to measure fasting blood glucose. Fasting blood glucose was measured for 4 times, i.e.: prior to grouping, and D2, D7, and D15 after administration of the drug.
smiles,measurement,setting,value
"CN(C)C(=N)N=C(N)N [MET, metformin]",glycosylated hemoglobin value (HbAlc),db/db mice [1],6%
same,UTP24 h urine protein,db/db mice [2],39.65 mg/dL
same,urine creatinine increased than that in the negative control group NOR,db/db mice [3],10.5 µM
same,mAlb urine microalbumin content,db/db mice [4],8.50 mg/L
same,non-fasting blood glucose level compared with control,db/db mice [5],less than that in the positive control
same,fasting blood glucose level compared with negative control group NOR,db/db mice [6],less than that in negative control group NOR
